Measured values reported in ChEMBL document CHEMBL1201862, “PubChem BioAssay data set” (2004).
Calls of active or inactive are those of the source.

Tests used:
[1] = A549 cell cytotoxicity, dose response, cytotoxicity control, plate reader, cherry-pick, antagonist series (AID 743412); format: functional, cell-based
cells = format: functional, cell-based
[2] = molecular target: Latent membrane protein 1 (Human herpesvirus 4 (strain B95-8), UniProt P03230); test: LMP1 TES1 pathway selectivity over dsRED control – imaging, HEK293T, dual-color eGFP/dsRED, cherry-picks, selectivity assay for LMP1 NF-kB inhibitor project, dose response (AID 588398); format: functional, cell-based
Latent membrane protein 1, sequence (P03230 whole entry): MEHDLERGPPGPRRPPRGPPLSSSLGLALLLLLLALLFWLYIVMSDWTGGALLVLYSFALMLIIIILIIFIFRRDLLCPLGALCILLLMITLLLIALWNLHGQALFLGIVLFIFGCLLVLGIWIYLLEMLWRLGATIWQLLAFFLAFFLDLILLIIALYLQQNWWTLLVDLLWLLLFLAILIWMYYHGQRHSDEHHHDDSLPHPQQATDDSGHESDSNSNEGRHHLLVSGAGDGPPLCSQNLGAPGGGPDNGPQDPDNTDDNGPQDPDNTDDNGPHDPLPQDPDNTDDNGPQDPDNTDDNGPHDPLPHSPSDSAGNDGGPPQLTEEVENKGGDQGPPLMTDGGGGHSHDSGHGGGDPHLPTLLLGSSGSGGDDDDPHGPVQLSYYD

[3] = molecular target: T1, Nuclear receptor subfamily 0 group B member 1 (Homo sapiens, UniProt P51843); format: functional, cell-based;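 note: HEK293T cells transfected with SF-1 and DAX-1 plus StAR promoter luciferase reporter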
T1 sequence (P51843 whole entry): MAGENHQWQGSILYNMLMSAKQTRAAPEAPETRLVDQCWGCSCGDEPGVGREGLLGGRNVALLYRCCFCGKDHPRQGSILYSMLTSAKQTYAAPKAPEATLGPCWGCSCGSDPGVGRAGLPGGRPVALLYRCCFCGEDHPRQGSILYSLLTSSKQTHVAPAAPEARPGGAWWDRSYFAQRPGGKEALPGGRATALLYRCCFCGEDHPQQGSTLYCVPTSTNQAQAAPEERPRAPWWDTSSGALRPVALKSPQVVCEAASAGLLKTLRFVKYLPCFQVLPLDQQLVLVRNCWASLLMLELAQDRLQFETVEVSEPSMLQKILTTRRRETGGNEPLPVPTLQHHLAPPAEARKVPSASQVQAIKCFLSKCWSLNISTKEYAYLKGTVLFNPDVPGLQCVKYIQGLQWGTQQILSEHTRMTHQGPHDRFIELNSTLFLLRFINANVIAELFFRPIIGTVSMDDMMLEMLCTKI

[4] = blockade of melanocortin 4 receptor signaling – cell-based, plate reader, cherry pick, counter-screen for LGR2 antagonist project, dose response (AID 743444); format: functional;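 note: transfected HEK 293 cells stimulated with alpha-MSH peptide; potency of inhibitors of the alpha-MSH evoked signal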
[5] = blockers of bursicon-stimulated LGR2 cAMP reporter – cell-based, HEK293, CRE-luciferase reporter, cherry pick, set 2, dose response (AID 743343); format: functional;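 note: transfected cells were stimulated with diluted bursicon conditioned medium after compound addition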
HEK293 = test: EBV LMP1 TES2 canonical NF-kB signalling blockers – cell-based, HEK293, luciferase, cherry-pick, dose response (AID 588343); format: functional; conditions: Homo sapiens
CHO = CHO cell viability loss, potency – luminescence, cytotoxicity control for TLR9-MyD88 binding inhibitor project, dose response (AID 588339); format: functional, cell-based, hamster; conditions: Cricetulus griseus;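 note: CHO cells stably coexpressing TLR9 and MyD88 fusions from primary screen; compound exposure lasted 48 hours before viability readout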
[6] = luciferase reporter signal suppression in cells – H4 neuroglioma cells, luminescence, dose response (AID 1990); format: functional, cell-based
Beta-galactosidase = Beta-galactosidase (Escherichia coli, UniProt Q8VNN2); test: PubChem AID 485352; format: functional
Beta-galactosidase, sequence (Q8VNN2 whole entry): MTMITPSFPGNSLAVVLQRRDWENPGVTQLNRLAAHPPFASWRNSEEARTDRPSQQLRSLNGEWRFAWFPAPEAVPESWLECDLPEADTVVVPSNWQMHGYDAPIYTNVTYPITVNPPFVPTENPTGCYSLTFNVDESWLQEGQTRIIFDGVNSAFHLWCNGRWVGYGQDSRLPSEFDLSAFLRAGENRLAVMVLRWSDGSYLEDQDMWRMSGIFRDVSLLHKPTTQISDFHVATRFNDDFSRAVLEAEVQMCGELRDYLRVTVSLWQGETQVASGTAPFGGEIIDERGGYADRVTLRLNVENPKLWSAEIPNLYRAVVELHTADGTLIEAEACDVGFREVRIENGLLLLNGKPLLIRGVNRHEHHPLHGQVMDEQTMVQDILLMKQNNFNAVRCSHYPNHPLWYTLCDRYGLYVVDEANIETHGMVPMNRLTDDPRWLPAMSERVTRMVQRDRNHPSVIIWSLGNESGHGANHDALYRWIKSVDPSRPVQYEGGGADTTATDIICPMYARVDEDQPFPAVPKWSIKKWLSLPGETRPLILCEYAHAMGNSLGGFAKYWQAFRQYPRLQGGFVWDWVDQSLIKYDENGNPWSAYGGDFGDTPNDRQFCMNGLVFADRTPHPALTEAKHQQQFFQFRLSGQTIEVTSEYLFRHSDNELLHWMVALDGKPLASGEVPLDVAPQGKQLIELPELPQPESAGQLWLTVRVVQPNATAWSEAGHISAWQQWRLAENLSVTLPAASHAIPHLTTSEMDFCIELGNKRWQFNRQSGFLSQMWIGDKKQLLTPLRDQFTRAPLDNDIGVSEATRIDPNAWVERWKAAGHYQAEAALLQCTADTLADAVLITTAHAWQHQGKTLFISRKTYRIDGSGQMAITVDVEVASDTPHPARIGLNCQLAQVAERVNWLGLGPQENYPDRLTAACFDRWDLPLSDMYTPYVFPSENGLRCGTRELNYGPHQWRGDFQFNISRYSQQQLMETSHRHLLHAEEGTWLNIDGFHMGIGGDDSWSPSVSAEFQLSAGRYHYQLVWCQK

[7] = molecular target: T2, Type-1 angiotensin II receptor (Homo sapiens, UniProt P30556); test: antagonism of angiotensin II type 1 receptor – cell-based, uHTS hits, selectivity assay for APJ receptor antagonist project, dose response (AID 463214); format: functional;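 note: antagonist potency against angiotensin II stimulated AT1 response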
T2 sequence (P30556 whole entry): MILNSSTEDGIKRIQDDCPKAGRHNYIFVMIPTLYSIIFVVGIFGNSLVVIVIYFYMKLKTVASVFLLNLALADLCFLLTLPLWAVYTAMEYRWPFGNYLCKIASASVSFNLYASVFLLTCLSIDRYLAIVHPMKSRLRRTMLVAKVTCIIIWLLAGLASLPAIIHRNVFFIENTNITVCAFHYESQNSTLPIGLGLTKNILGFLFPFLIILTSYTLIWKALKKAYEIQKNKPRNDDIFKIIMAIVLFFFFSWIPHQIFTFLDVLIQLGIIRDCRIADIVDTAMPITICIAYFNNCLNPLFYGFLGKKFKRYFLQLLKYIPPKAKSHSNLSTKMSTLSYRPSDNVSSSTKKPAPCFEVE

[8] = non-specific 3'UTR reporter inhibition in Clone20-Shn3RL – cell-based, Renilla luciferase, cherry-picked, counter-screen for Shn3 inhibitor project, dose response (AID 624133); format: functional
[9] = loss of viability in HepG2 cells – cell-based, CellTiter-Glo, cherry-picked, cytotoxicity control for Shn3 inhibitor project, dose response (AID 624134); format: functional
[10] = molecular target: Heat shock protein HSP 90-alpha (Homo sapiens, UniProt P07900); format: functional, organism-based
[11] = Luminescence Cell-Based Dose Response HTS to Identify Inhibitors of 5'UTR Stem-Loop Driven Prion Protein mRNA Translation in H4 Neuroglioblastoma Cells. [Related pubchem assays: 1827 (Project Summary), 1813 (Primary HTS)]; format: functional
INS1 = test: INS-1E survival protection against cytokine death – cell-based, luminescence, retest, dose response (AID 449756); format: functional; conditions: Rattus norvegicus;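 note: cell death triggered by IL-1 beta plus TNF-alpha plus IFN-gamma mixture; protective hits raise ATP signal compared with cytokine alone wells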
Beta Lactamase = Beta Lactamase (Pseudomonas aeruginosa, UniProt Q932Y6); test: BLA reporter interference, concentration series – BLA reporter cells, FRET fluorescence, artefact control for TLR9-MyD88 binding inhibitor project, dose response (AID 588341); format: cell-based;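 note: cell based assay in CHO-K1 cells stably expressing beta-lactamase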
Beta Lactamase, sequence (Q932Y6 whole entry): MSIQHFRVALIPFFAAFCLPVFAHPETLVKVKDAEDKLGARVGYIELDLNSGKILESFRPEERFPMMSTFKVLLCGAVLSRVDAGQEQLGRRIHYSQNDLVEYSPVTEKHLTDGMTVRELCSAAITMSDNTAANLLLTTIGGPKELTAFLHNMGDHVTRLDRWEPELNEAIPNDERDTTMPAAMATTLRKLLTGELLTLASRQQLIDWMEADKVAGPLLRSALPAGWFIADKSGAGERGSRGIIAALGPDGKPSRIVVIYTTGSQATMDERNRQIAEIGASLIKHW

[12] = Luminescence Cell-Based Dose Retest to Confirm Inhibitors of Cancer Stem Cells. [Related pubchem assays (depositor defined):AID2717, AID2721]; format: functional; conditions: Homo sapiens
[13] = alpha-synuclein stem-loop luciferase translation blockers – H4 neuroglioma cells, luminescence, confirmation (AID 1988); format: functional, cell-based
[14] = reduction of Shn3 3'UTR-driven luciferase in osteoblasts – cell-based, Clone20 osteoblasts, firefly luciferase, cherry-picked, dose response (AID 624132); format: functional;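 note: firefly luciferase luminescence from reporter carrying the Shn3 3'UTR in osteoblasts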

Compound | AC50 [1] | IC50 (cells) | AC50 [2] | IC50 [3] | AC50 [4] | AC50 [5] | AC50 (HEK293) | IC50 (CHO) | EC50 [6] | EC50 (Beta-galactosidase) | IC50 [7] | AC50 [8] | AC50 [9] | AC50 [10] | EC50 [11] | AC50 (INS1) | IC50 (Beta Lactamase) | AC50 [12] | EC50 [13] | AC50 [14]
c1ccc(-c2cn3c4c(sc3n2)CCCC4)cc1 | 41.1 µM (active) | > 67.6 µM (inactive) | 31.6 µM (active) | > 67.6 µM (inactive) | 4.25 µM (active) | 2.72 µM (active) | 1.92 µM (active) | – | – | – | – | – | – | – | – | – | – | – | – | –
COc1ccc(OC)c(NC(=O)c2nc(S(=O)(=O)Cc3ccccc3)ncc2Cl)c1 | – | – | – | – | – | – | – | 1.05 µM (active) | 12.2 µM (active) | > 40 µM (inactive) | 5.87 µM (active) | 3.79 µM (active) | 13.7 µM (active) | 2.95 µM (active) | > 120 µM (not active) | 5.38 µM (active) | 6.72 µM (active) | 3.48 µM (active) | 11.6 µM (active) | 2.08 µM (active)
